From US8298328B2, “Amorphous metal salt for facilitating the handling property of portland cements and dental applications thereof” (Taipei Medical University, priority 2008, dated 2012)

How the values were obtained:
[1] = Crystal form by wide-angle X-ray diffraction (XRD); assay type: physicochemical; settings: XRD of powder
Protocol: The crystal form of the CLG powder prepared above is determined by wide-angle x-ray diffraction (XRD). First, 1.00 g of CLG powder was placed in a sample carrier, and the powder filling was pressed by a slide. Then, the sample was placed on an X-ray diffractometer (MaxRC, Rigaku, Japan), and X-ray diffraction was performed by using Kα radiation (λ=1.541838A) at scan rate of 10°/min and 20 scanning angle from 5° to 60°. The peaks of X-ray diffraction data were analyzed in accordance with the Joint Committee on Powder Diffraction Standards (JCPDS).

[2] = filtrate after reaction with CaO, before drying
Protocol: After mixing and stirring for 1 hour, the solution was filtered, and the filtrate was collected.

[3] = Water solubility of the divalent metal salt powder; settings: 25° C., dried powder

Compound	Crystal form [1]	pH value of the filtrate solution [2]	Solubility (water solubility) [3]	also measured
O.O.O=S(=O)([O-])[O-].[Ca+2] [Comparative Example 1, Calcium Sulfate Dehydrate, reference compound]	Crystalline	–	–	–
CC(O)C(=O)[O-].CC(O)C(=O)[O-].[Ca+2] (stereo not drawn) [Comparative Example 3, Calcium Lactate, reference compound]	Crystalline	–	–	Crystal form ([1]; listed as CL): crystalline
CC(O)C(=O)[O-].O=C([O-])[C@H](O)[C@@H](O)[C@H](O)[C@H](O)CO.[Ca+2] [Example 1, Calcium Lactate Gluconate]	Amorphous	9.8	35.7~41.0 g/100 ml	Solubility (water solubility) ([3]; listed as CLG): 35.7˜41.0 g/100 ml; Crystal form ([1]; listed as CLG): amorphous
O=C([O-])[C@H](O)[C@@H](O)[C@H](O)[C@H](O)CO.O=S(=O)([O-])O.[Ca+2] [Example 3, Calcium Sulfate Gluconate]	Amorphous	9.3	30.1~31.7 g/100 ml	Solubility (water solubility) ([3]; listed as CSG): 30.1˜31.7 g/100 ml; Crystal form ([1]; listed as CSG): amorphous
Calcium Gluconate [Comparative Example 2, reference compound]	Crystalline	–	–	Crystal form ([1]; listed as CG): crystalline
Calcium Lactate Sulfate [Example 2]	Amorphous	9.7	–	Crystal form ([1]; listed as CLS): amorphous
